Laboratory results taken from patent US9623063B2, “Extracts from Ajuga reptans cell lines, their preparation and use” (I.R.B. ISTITUTO DI RICERCHE BIOTECNOLOGICHE S.r.l., priority 2005, dated 2017).

How the values were obtained:
[1] = Peroxynitrite scavenging (SIN-1, PTIO spin trap, ESR); type: biochemical; conditions: means of 6 independent assays
Source text: The superoxide anion has been measured by a chemiluminescent assay based on the hypoxanthine (HPX)/xanthine oxidase (XOD) reaction using the Lumimax Superoxide Anion Detection Kit (Stratagene, La Jolla, Calif., USA) and following the manufacturer's instructions. Hydroxyl radical scavenger activity has been measured by means of the Fenton reaction for the production of hydroxyl radicals and chemiluminescent dosage (using a Victor^3 chemiluminometer, Wallac, Finland) with luminol. Peroxynitrite ions have been determined by means of dosage with a spontaneous generator of peroxynitrites (3-morpholinosidnonimine hydrochloride; SIN-1) and a stable reagent for the nitroxyl ions (2-(4-carboxyphenyl)-4,4,5,5-tetramethylimidazoline-1-oxyl-3-oxide potassium salt PTIO spin trap) then dosed by means of electron spin resonance (ESR) using a Nippon Denshi JES-FR30. Lipid peroxidation has been generated using Fe^2+ induced-oxygen reactive species, and detected using thiobarbituric acid in accordance with Buege, J A & Aust, S D: Microsomal lipid peroxidation (Methods Enzymol.
The results are expressed as the concentration inhibiting 50% of activity (IC50), means of 6 independent assays.

[2] = tested on: A549 cells (ATCC-CCL185); assay: BSO-induced oxidative stress, ROS by DCF fluorimetry in A549 cells; type: cell-based, human; conditions: 20 μM; with BSO; control without BSO = 100
Experimental: 10×10^5 A549 cells (ATCC-CCL185) have been seeded into wells with 3 ml of DMEM/F12K HAM medium (Sigma-Aldrich) with 10% FCS and incubated at 37° C. in a 5% CO2, water vapour saturated atmosphere. After 24 hours the culture medium is replaced by medium supplemented with BSO, which is left in contact with the cells for 20 hours. The medium is once again replaced with medium containing BSO in the presence or absence of the test compound. After 4 hours, quantitative measurement of the ROSs (hydroxyl radicals) is performed by washing the cells with phosphate buffer and then incubating them with 30 μM DCF-DA in buffer solution. At the end of a 15 minute incubation, excess DCF-DA is removed from the cells by washing, prior to measuring the fluorescence emitted.
Antioxidant activity measurements are performed using a (Hitachi F3010) spectrophotometer with excitation at 488 nm and measuring emission at 525 nm, and values are expressed in pmoles, by extrapolation from the calibration curve constructed using known quantities of DCF, and in relation to total cellular protein. Values are thus expressed in % ages with respect to the ROS content of the cells not subjected to treatment with BSO (control) to which are assigned a value of 100.
The Extracts 1 and 2, Teupolioside and Ascorbic Acid were solubilized in phosphate buffer 10 mM at pH 7.4, whereas trolox was solubilized in 0.1% of dimethylsulphoxide and culture medium.

C[C@@H]1O[C@@H](O[C@@H]2[C@@H](O)[C@H](OCCc3ccc(O)c(O)c3)O[C@H](CO)[C@H]2OC(=O)/C=C/c2ccc(O)c(O)c2)[C@H](O[C@@H]2O[C@H](CO)[C@H](O)[C@H](O)[C@H]2O)[C@H](O)[C@H]1O [Teupolioside, teupolioside]
Peroxynitrite radical (IC50) [1]: 1.8 µg/mL | % ROS in picomoles [2]: 135 ± 7 %
